# Tests used:
# [1] = target: T1, isolated porcine cardiac ventricular myocardium (cardiac) (Sus scrofa, UniProt P79293); assay: actomyosin steady state ATPase measurement, cardiac myosin; format: biochemical
# T1 construct: isolated porcine cardiac ventricular myocardium (cardiac); from tissue; host or cells: porcine cardiac ventricle
# From the text: […]; (ii) the concentration required for semi-maximal inhibition.
# M. quadriceps femoris = assay: isometric force measurement of live, anesthetized rat M. quadriceps femoris due to electrical stimulation; format: in vivo
# Protocol: The maximum isometric force induced by the stimulation was determined after intraperitoneal injection of some of the compounds of the invention. During the measurement, the following parameters of live anesthetized rats were continuously monitored: • a) heart rate • b) blood flow in the neck arteries • c) respiratory frequency • d) blood oxygen saturation ratio Results from live anesthetized rats are summarized in the table below.
# T1 sequence (P79293 whole entry): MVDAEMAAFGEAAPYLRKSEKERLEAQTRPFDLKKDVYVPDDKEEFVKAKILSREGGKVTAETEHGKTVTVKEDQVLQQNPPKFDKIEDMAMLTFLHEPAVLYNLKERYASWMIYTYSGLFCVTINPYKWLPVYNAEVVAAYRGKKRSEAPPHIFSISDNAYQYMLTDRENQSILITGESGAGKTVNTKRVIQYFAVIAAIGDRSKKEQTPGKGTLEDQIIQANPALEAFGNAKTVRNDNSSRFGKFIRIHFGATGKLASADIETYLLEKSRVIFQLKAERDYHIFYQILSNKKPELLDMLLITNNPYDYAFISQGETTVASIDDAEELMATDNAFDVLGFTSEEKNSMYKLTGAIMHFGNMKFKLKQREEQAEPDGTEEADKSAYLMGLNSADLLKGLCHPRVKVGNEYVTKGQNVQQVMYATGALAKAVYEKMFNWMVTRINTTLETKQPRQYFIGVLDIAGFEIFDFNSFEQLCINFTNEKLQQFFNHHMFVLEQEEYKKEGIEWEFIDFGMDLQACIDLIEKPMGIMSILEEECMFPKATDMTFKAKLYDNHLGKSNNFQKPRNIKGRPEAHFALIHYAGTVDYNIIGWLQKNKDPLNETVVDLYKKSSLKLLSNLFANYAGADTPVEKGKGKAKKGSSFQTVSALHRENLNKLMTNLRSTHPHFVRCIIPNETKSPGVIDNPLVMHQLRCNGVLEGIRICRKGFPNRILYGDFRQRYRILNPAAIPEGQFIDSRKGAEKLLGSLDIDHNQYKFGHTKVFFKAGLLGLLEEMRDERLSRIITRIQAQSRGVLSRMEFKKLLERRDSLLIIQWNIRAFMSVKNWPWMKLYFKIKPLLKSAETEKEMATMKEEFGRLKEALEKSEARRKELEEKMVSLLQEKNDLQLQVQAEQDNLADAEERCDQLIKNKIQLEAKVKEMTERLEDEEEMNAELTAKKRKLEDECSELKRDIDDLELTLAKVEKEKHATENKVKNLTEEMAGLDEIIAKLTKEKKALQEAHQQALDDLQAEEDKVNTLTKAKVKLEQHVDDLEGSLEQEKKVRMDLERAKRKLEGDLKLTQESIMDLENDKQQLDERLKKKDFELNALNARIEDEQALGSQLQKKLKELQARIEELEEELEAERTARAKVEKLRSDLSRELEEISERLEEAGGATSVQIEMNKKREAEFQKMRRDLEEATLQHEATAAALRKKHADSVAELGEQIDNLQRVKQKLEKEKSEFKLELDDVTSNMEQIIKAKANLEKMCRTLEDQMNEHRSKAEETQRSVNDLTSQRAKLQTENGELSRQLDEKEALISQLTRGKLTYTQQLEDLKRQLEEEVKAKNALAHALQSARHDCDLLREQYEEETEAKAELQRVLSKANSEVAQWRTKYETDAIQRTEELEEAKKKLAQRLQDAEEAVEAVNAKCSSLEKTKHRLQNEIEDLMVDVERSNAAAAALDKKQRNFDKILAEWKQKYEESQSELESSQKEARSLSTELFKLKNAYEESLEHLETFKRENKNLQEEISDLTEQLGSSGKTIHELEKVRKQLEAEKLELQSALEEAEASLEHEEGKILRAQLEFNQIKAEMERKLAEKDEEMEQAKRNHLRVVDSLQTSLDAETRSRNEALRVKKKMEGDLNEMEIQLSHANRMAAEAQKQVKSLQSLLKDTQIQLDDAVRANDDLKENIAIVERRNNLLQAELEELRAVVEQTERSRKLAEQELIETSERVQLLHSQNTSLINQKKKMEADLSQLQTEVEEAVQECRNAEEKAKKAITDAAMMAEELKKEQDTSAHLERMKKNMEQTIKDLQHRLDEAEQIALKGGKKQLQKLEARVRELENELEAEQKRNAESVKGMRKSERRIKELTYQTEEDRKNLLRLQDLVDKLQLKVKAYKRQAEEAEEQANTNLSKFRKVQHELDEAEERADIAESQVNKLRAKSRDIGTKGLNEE
structure (smiles),measurement,setting,value
"O=C1c2ccsc2N=C2N(c3ccc(N4CCOCC4)cc3)CCC12O (stereo not shown) [Compound 188, 9-Hydroxy-12-[4-(morpholin-4-yl)phenyl]-4-thia-2,12-diazatricyclo[7.3.0.0^3,7]dodeca-1,3(7),5-trien-8-one]",IC50,[1]; concentration required for semi-maximal inhibition of ATPase,> 100 µM
same,% inhibition. complete cardiac,[1]; maximum value of inhibition of ATPase activity,32%
same,inhibition at 5 µM,"[1]; read-out: % inhibition at 5 μM (or 10 μM if racemate) cardiac, 5 μM (10 μM if racemate), ATPase activity",0%
same,inhibition at 50 µM,"[1]; read-out: % inhibition at 50 μM (or 100 μM if racemate) cardiac, 50 μM (100 μM if racemate), ATPase activity",8%
same,Maximum change in isometric force at rear leg (%),M. quadriceps femoris; 1 mg i.p.,23%
same,Maximum change in isometric force at rear leg (%),M. quadriceps femoris; 3 mg i.p.,26%
same,Maximum change in isometric force at rear leg (%),M. quadriceps femoris; 6 mg i.p.,28%

# Reference: patent US12421243B2, “Pharmaceutically effective compounds inhibiting selectively the myosin 2 isoforms” (PRINTNET KERESKEDELMI ÉS SZOLGÁLTATÓ KFT., priority 2018, dated 2025)
